Reference: article PMC11413503, “SCR‐7952, a highly selective MAT2A inhibitor, demonstrates synergistic antitumor activities in combination with the S‐adenosylmethionine‐competitive or the methylthioadenosine‐cooperative protein arginine methyltransferase 5 inhibitors in methylthioadenosine phosphorylase‐deleted tumors” (MedComm, 2024)

Key:
[1] = system: SAM levels in HCT116 MTAP−/− xenograft tumors and mice plasma; experiment: In vivo SAM measurement in tumors and plasma; settings: 2 or 4 h post the final dose, low group, 16 days
Description: The concentration of SAM in plasma and tissue samples was determined using a UPLC–MS/MS method. For plasma samples, an aliquot of 20 µL plasma sample was added with 400 µL extraction buffer (1 M acetic acid in MeOH), then vortexed and centrifuged at 16,000 g for 5 min. The supernatant was treated as the homogenized tissue sample, and the sample dilution factor was 21. For tumor samples, the tumor tissues were homogenized with 9 volumes (v/w) of extraction buffer, then vortexed and centrifuged at 16,000 g for 5 min. The supernatant was treated as the homogenized tissue sample. An aliquot of 30 µL tissue sample was added with 600 µL extraction buffer, then vortexed and centrifuged at 16,000 g for 5 min. The total sample dilution factor is 210. An aliquot of 60 µL diluted samples, standards, or QCs was added with 400 µL extraction buffer with IS (SAM‐d 3, 50 ng/mL in extraction buffer). The mixture was vortexed at 250 g for 10 min and centrifuged at 16,000 g for 5 min. An aliquot of 4 µL supernatant was injected for UPLC–MS/MS analysis. The standard calibration curve was in a 1.0–300 ng/mL concentration range. UPLC–MS/MS method for SAM detection was performed as mentioned before.

FANCA = experiment: RT-PCR of FANCA and DI-containing transcripts; type: cell-based; settings: 72 h
[2] = Functional panel of 47 representative targets; settings: at 10 µM
SDMA = experiment: Tumor SDMA levels in combination xenograft study; type: in vivo, mice; settings: SCR-7952 0.3 mg/kg alone
[3] = system: KP4 (MTAP-deleted pancreatic cancer cell line); experiment: Combination proliferation assay; type: cell-based; settings: KP4 cells, 8 days
Description: Cells were plated in 96‐well cell culture plates and allowed to attach overnight at 37°C in 5% CO2. […] The final concentration of DMSO was 0.1% in media. Cell proliferation was measured using CellTiter‐Glo Cell Viability Assay (Promega). The IC50 values were calculated using the GraphPad Prism 9. Drug combination effects were analyzed using Combenefit software.[45]

ADRA1A = ADRA1A (Homo sapiens, UniProt P35348); experiment: Mini-profiling panel, GPCR; type: cell-based
Description: (§1) Further insight into selectivity was evaluated in a functional panel of 47 representative targets closely related to human life activities, including G protein‐coupled receptors, transporters, ion channels, kinases, nuclear hormone receptor targets, and nonkinase enzymes (Table S3).

ADRA2A = ADRA2A (Homo sapiens, UniProt P08913); experiment: Mini-profiling panel, GPCR; type: cell-based
Description: as §1

CHRM1 = CHRM1 (Homo sapiens, UniProt P11229); experiment: Mini-profiling panel, GPCR; type: cell-based
CHRM1, sequence (P11229 whole entry, species assumed): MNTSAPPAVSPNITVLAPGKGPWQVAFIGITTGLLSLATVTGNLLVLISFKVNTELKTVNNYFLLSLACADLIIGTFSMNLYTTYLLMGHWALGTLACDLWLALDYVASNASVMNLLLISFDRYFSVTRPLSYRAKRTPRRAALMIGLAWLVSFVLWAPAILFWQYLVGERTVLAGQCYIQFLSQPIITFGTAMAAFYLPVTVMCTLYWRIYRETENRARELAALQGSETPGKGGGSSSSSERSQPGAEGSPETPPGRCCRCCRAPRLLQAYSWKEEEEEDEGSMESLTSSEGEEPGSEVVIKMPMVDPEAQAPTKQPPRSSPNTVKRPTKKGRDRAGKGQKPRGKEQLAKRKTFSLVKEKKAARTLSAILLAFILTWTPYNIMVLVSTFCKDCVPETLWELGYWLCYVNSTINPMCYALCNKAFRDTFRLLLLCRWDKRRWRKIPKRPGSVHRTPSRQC
Description: as §1

CHRM2 = CHRM2 (Homo sapiens, UniProt P08172); experiment: Mini-profiling panel, GPCR; type: cell-based
CHRM2, sequence (P08172 whole entry, species assumed): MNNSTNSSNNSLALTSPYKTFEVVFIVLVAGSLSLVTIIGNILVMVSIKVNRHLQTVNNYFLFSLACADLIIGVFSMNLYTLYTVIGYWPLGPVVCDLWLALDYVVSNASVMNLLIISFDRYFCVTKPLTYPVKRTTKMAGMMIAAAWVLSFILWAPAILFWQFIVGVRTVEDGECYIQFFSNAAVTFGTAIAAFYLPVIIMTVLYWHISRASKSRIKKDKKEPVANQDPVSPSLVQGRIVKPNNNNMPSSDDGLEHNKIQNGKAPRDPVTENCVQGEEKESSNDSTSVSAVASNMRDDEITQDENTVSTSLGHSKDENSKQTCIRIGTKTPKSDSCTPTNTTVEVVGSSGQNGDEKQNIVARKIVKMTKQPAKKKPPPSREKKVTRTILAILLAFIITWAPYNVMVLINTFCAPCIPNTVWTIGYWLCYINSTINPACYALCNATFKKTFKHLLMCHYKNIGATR
Description: as §1

CHRM3 = CHRM3 (Homo sapiens, UniProt P20309); experiment: Mini-profiling panel, GPCR; type: cell-based
Description: as §1

CNR1 = CNR1 (Homo sapiens, UniProt P21554); experiment: Mini-profiling panel, GPCR; type: cell-based
CNR1, sequence (P21554 whole entry, species assumed): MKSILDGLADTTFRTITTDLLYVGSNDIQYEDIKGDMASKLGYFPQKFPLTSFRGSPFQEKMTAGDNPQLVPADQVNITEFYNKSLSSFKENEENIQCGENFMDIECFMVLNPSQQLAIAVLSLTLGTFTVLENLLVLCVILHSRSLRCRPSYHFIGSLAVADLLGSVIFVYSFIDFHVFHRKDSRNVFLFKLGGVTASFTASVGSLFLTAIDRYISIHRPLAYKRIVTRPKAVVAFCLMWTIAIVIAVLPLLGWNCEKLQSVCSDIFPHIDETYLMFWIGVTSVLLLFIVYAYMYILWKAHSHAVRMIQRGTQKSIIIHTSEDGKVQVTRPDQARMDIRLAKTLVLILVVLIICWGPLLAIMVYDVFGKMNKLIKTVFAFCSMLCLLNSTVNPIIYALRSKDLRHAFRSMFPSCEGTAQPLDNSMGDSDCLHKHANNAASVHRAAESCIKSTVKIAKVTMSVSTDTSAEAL
Description: as §1

CNR2 = CNR2 (Homo sapiens, UniProt P34972); experiment: Mini-profiling panel, GPCR; type: cell-based
CNR2, sequence (P34972 whole entry, species assumed): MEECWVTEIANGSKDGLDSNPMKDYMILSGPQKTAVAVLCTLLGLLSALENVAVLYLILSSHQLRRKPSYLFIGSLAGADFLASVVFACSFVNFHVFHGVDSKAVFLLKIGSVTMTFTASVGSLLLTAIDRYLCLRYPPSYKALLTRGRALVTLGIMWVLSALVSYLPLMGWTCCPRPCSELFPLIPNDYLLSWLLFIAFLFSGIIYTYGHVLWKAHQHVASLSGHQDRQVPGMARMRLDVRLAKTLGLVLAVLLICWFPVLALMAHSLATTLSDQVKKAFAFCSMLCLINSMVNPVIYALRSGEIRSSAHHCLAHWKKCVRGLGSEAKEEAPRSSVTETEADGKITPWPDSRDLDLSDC
Description: as §1

DRD1 = DRD1 (Homo sapiens, UniProt P21728); experiment: Mini-profiling panel, GPCR; type: cell-based
Description: as §1

DRD2S = DRD2S (Homo sapiens, UniProt P14416); experiment: Mini-profiling panel, GPCR; type: cell-based
Description: as §1

HTR1A = HTR1A (Homo sapiens, UniProt P08908); experiment: Mini-profiling panel, GPCR; type: cell-based
HTR1A, sequence (P08908 whole entry, species assumed): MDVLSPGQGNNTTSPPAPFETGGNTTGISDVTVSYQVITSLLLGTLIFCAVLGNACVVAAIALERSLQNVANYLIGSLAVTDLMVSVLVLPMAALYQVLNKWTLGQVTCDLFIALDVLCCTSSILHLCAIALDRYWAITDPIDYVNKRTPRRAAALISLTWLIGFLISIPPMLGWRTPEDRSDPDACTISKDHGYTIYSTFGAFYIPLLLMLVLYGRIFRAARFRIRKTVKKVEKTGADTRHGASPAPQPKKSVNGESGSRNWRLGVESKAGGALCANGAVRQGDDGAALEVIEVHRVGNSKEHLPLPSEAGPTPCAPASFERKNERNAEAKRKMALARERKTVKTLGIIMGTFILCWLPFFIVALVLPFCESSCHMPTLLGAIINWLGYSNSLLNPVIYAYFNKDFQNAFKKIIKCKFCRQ
Description: as §1

HTR1B = HTR1B (Homo sapiens, UniProt P28222); experiment: Mini-profiling panel, GPCR; type: cell-based
HTR1B, sequence (P28222 whole entry, species assumed): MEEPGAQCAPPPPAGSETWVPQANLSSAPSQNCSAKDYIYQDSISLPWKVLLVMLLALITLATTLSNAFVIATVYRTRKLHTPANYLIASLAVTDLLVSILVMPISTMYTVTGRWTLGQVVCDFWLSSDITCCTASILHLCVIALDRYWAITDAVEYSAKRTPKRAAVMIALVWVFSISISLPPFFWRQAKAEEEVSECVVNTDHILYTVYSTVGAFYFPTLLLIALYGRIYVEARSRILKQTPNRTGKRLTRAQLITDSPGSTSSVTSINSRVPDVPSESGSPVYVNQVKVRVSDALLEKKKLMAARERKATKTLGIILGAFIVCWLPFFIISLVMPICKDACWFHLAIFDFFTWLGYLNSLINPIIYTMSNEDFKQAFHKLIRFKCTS
Description: as §1

HTR2A = HTR2A (Homo sapiens, UniProt P28223); experiment: Mini-profiling panel, GPCR; type: cell-based
Description: as §1

HTR2B = HTR2B (Homo sapiens, UniProt P41595); experiment: Mini-profiling panel, GPCR; type: cell-based
HTR2B, sequence (P41595 whole entry, species assumed): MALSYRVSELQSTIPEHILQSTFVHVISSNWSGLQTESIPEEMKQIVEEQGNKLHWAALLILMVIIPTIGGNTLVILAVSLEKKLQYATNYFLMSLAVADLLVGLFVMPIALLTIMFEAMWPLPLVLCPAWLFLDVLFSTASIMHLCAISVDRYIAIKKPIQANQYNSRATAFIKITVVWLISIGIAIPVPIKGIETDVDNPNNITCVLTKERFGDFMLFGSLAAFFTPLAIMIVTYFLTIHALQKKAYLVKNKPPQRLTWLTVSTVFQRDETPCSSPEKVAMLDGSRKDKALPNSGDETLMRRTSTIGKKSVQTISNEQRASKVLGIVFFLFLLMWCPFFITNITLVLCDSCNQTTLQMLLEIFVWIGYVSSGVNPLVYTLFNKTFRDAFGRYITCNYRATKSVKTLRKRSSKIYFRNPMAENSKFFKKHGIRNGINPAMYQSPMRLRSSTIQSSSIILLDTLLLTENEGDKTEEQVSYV
Description: as §1

OPRD1 = OPRD1 (Homo sapiens, UniProt P41143); experiment: Mini-profiling panel, GPCR; type: cell-based
OPRD1, sequence (P41143 whole entry, species assumed): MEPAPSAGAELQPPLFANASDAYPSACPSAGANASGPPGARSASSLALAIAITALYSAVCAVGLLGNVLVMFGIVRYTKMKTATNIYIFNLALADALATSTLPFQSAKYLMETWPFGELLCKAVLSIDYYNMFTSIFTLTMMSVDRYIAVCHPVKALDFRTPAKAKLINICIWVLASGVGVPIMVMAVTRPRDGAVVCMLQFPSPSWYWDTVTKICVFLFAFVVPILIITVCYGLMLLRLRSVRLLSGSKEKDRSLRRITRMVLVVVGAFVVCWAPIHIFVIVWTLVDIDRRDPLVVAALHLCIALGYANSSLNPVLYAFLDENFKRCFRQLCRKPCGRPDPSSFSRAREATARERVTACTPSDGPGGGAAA
Description: as §1

OPRK1 = OPRK1 (Homo sapiens, UniProt P41145); experiment: Mini-profiling panel, GPCR; type: cell-based
OPRK1, sequence (P41145 whole entry, species assumed): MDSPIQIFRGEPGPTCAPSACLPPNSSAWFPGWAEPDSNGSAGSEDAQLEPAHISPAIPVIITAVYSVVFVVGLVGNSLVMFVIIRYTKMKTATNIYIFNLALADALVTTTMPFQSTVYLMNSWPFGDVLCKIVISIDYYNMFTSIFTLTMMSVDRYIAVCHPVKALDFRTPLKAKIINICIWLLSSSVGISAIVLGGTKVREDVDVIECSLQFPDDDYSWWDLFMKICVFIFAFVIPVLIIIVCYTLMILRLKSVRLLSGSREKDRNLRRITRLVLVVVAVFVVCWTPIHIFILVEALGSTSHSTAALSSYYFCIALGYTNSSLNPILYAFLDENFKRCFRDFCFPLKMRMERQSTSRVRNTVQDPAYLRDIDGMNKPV
Description: as §1

OPRM1 = OPRM1 (Homo sapiens, UniProt P35372); experiment: Mini-profiling panel, GPCR; type: cell-based
Description: as §1

DAT = DAT (Homo sapiens, UniProt Q01959); experiment: Mini-profiling panel, transporter; type: cell-based
Description: as §1

NET = NET (Homo sapiens, UniProt P23975); experiment: Mini-profiling panel, transporter; type: cell-based
Description: as §1

SERT = SERT (Homo sapiens, UniProt P31645); experiment: Mini-profiling panel, transporter; type: cell-based
Description: as §1

hERG = hERG (Homo sapiens, UniProt Q12809); experiment: Mini-profiling panel, ion channel; type: cell-based; settings: Ion Channels; read-out: hERG Blocker IC50
GR = GR (Homo sapiens, UniProt P04150); experiment: Mini-profiling panel, nuclear hormone receptor; type: cell-based; settings: NHR Targets
GR, sequence (P04150 whole entry): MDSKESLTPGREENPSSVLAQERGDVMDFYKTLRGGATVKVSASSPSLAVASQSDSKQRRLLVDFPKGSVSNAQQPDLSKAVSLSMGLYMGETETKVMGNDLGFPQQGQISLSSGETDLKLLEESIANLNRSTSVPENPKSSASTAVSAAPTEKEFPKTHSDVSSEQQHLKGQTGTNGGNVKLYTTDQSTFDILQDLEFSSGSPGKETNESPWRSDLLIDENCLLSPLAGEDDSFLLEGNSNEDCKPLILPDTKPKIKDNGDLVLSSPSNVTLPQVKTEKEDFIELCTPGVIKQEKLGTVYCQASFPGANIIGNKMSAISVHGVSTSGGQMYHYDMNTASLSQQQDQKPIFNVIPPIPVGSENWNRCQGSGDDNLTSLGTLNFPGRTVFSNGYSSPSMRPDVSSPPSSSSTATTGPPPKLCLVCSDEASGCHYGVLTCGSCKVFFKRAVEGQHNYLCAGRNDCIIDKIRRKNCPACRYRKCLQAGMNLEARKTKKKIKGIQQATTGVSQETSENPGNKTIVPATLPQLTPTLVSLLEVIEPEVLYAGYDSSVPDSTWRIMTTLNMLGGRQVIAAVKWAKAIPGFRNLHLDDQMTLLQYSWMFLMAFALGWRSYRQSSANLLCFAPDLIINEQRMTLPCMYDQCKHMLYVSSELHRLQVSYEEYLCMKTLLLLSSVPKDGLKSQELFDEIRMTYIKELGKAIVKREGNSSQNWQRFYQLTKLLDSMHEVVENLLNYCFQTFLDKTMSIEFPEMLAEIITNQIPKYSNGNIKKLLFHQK

MAOA = MAOA (Homo sapiens, UniProt P21397); experiment: Mini-profiling panel, non-kinase enzyme; type: biochemical; settings: Non-Kinase Enzymes; read-out: MAOA Inhibitor IC50
PDE3A = PDE3A (Homo sapiens, UniProt Q14432); experiment: Mini-profiling panel, non-kinase enzyme; type: biochemical; settings: Non-Kinase Enzymes; read-out: PDE3A Inhibitor IC50

Q: With `Cn1cnc2c(=O)n(-c3cccnc3C3CC3)c3cc(Cl)ccc3c21` [SCR‐7952, 7‐chloro‐5‐(2‐cyclopropylpyridin‐3‐yl)‐1‐methyl‐1,5‐dihydro‐4H‐imidazo[4,5‐c]quinolin‐4‐one] as the molecule, how does the “inhibition of SAM levels in tumors and plasma” value [1] read?
A: 53.56–68.72%

Q: And the “expression of FANCA DI-containing transcripts” value (FANCA)?
A: significantly upregulated

Q: And the “total levels of FANCA mRNA” value (FANCA)?
A: reduced

Q: And the “agonistic or antagonistic activities on 47 targets” value [2]?
A: did not exhibit significant pharmacological effects

Q: What about the “tumor SDMA levels” value (SDMA) of the same molecule?
A: remarkable reduction

Q: And the “interaction in combination with JNJ-64619178 on KP4” value [3]?
A: synergistic effect was also observed

Q: And the EC50 (ADRA1A)?
A: > 10 µM

Q: What about the IC50 (ADRA1A) of the same molecule?
A: > 10 µM

Q: And the EC50 (ADRA2A)?
A: > 10 µM

Q: And the IC50 (ADRA2A)?
A: > 10 µM

Q: What about the EC50 (CHRM1) of the same molecule?
A: > 10 µM

Q: And the IC50 (CHRM1)?
A: > 10 µM

Q: And the EC50 (CHRM2)?
A: > 10 µM

Q: And the IC50 (CHRM2)?
A: > 10 µM

Q: What about the EC50 (CHRM3) of the same molecule?
A: > 10 µM

Q: And the IC50 (CHRM3)?
A: > 10 µM

Q: What about the EC50 (CNR1) of the same molecule?
A: > 10 µM

Q: And the IC50 (CNR1)?
A: > 10 µM

Q: And the EC50 (CNR2)?
A: > 10 µM

Q: What about the IC50 (CNR2) of the same molecule?
A: > 10 µM

Q: And the EC50 (DRD1)?
A: > 10 µM

Q: What about the IC50 (DRD1) of the same molecule?
A: > 10 µM

Q: What about the EC50 (DRD2S) of the same molecule?
A: > 10 µM

Q: What about the IC50 (DRD2S) of the same molecule?
A: > 10 µM

Q: What about the EC50 (HTR1A) of the same molecule?
A: > 10 µM

Q: What about the IC50 (HTR1A) of the same molecule?
A: > 10 µM

Q: What about the EC50 (HTR1B) of the same molecule?
A: > 10 µM

Q: And the IC50 (HTR1B)?
A: > 10 µM

Q: And the EC50 (HTR2A)?
A: > 10 µM

Q: What about the IC50 (HTR2A) of the same molecule?
A: > 10 µM

Q: What about the EC50 (HTR2B) of the same molecule?
A: > 10 µM

Q: What about the IC50 (HTR2B) of the same molecule?
A: > 10 µM

Q: What about the EC50 (OPRD1) of the same molecule?
A: > 10 µM

Q: And the IC50 (OPRD1)?
A: > 10 µM

Q: What about the EC50 (OPRK1) of the same molecule?
A: > 10 µM

Q: And the IC50 (OPRK1)?
A: > 10 µM

Q: And the EC50 (OPRM1)?
A: > 10 µM

Q: What about the IC50 (OPRM1) of the same molecule?
A: > 10 µM

Q: What about the IC50 (DAT) of the same molecule?
A: > 10 µM

Q: And the IC50 (NET)?
A: > 10 µM

Q: What about the IC50 (SERT) of the same molecule?
A: > 10 µM

Q: What about the IC50 (hERG) of the same molecule?
A: > 10 µM

Q: What about the EC50 (GR; read-out: GR Agonism EC50) of the same molecule?
A: > 10 µM

Q: And the IC50 (GR; read-out: GR Antagonism IC50)?
A: > 10 µM

Q: And the IC50 (MAOA)?
A: > 10 µM

Q: What about the IC50 (PDE3A) of the same molecule?
A: > 10 µM
